In patent US8895502B2, “β2-glycoprotein I peptide inhibitors” (Kansas State University Research Foundation, priority 2010, dated 2014):
“Also recorded” adds a separate entry of the source. Ends that are not written are not given here.

Key:
[1] = tested on: hypoxic MS-1 endothelial cells; test: In vitro hypoxia and immunocytochemistry: β2-GPI / anti-β2-GPI mAb binding to hypoxic endothelial cells; format: cell-based, mouse; details: peptide 40 μM during 4 hours hypoxia
Description: MS-1 endothelial cells were subjected to hypoxia or normoxia to validate β2-GPI binding in vitro. Hypoxic MS-1 endothelial cells (ATCC CRL-2279) received degassed, serum-free DMEM and were placed in a hypoxia chamber containing 94% nitrogen and 5% CO2. Normoxic cells received DMEM supplemented with 10% heat-inactivated sera from Rag-1^−/− mice in 8% CO2. After 4 hours at 37° C., all cells received fresh medium containing 10% heat-inactivated Rag-1^−/− sera and were incubated in normoxic conditions for 1 hour at 37° C. Additional peptide-inhibition studies were performed by addition of peptides (40 μM final concentration) during the hypoxic period. Cells were methanol fixed and stained with the anti-β2-GPI mAb (Millipore; Billerica, Mass.) followed by an anti-mouse IgG antibody to determine β2-GPI binding. Anti-β2-GPI binding was determined by allowing anti-β2-GPI mAb (Millipore) to bind during the 1 hour normoxic period. The cells were then stained with anti-mouse IgG antibodies (Jackson ImmunoResearch; West Grove, Pa.) as previously described (Fleming, S. D. et al., J. Immunol. 173:7055-7061 (2004)). Slides were mounted with DAPI (Blue) to identify the nuclei. The fluorescence was determined in a blind manner using a Nikon 80i fluorescent microscope with a 40× Plan Fluor objective and images acquired using a CoolSnap Cf camera (Photometrics; Tucson, Ariz.) and MetaVue Imaging software (Molecular Devices; Sunnyvale, Calif.). Each photomicrograph in the Figures is representative of 3 experiments with 4-6 photomicrographs per treatment group in each experiment. Bar=40 μm. Hypoxia was conducted similar to previous studies with the following modifications (Banerjee, S. et al., Reprod. Biol. Endocrinol. 7:4 (2009)). Hypoxic cells received degassed, serum-free DMEM and were placed in a hypoxia chamber containing 94% nitrogen, 5% CO2, and 1% O2. Normoxic cells received normal DMEM with 10% FBS in 8% CO2. After 2 hours at 37° C., all cells received fresh medium containing 10% heat-inactivated Rag-1^−/− sera and then were incubated under normoxic conditions for 1 hour at 37° C. Cells receiving β2-GPI peptides were administered the peptides (40 μM) during the 2 hours of either hypoxia or normoxia. IgG binding was determined using anti-mouse IgG antibodies (Jackson ImmunoResearch) as previously described (Fleming, S. D. et al., J. Immunol. 173:7055-7061 (2004)). Similarly, after Sham or IR, intestinal sections from peptide-treated mice were stained with anti-IgG antibodies to determine antibody deposition. The fluorescence was determined in a blind manner using a Nikon 80i fluorescent microscope and images acquired using a CoolSnap Cf camera (Photometrics) and MetaVue Imaging software (Molecular Devices).

B16-F10 mouse melanoma = test: B16-F10 melanoma model, tumor growth and vascularization; format: in vivo
Description: The mouse melanoma cell line, B16-F10 (ATCC CRL-6475), was cultured in DMEM supplemented with 10% fetal bovine serum at 8% CO2 until confluent. C57Bl/6 mice were injected subcutaneously with 2×10^6 cells mixed 1:1 in matrigel (BD Biosciences) and tumor growth was evaluated daily for up to 10 days using calipers. Some mice received 40 μM peptide daily for the first 4 days and then every other day until termination of the study. Control mice received N. saline. At the end of the study, the tumors were dissected and tumor volume determined by saline displacement. Photomicrographs (10×) of representative B16-F10 tumors extracted from C57Bl/6 wildtype mice were taken with a Nikon CoolSnap CF camera and an Olympus SZ61 microscope.
The study was repeated using additional C57Bl/6 mice, which were injected subcutaneously with 2×10^6 cells mixed with matrigel (above) 6-10 days before tumor excision. Peptide treated mice received 40 μM peptide 296Cys-Ser on days 1, 2, 3, 4, 6, and 8 after injection (n=2-5 animals/group) or days 3, 5, 7, 9 or only on days 4, 6, and 8. At the end of the study, the tumors were excised, measured, and volume was determined by aqueous displacement. Tumors were cut in half longitudinally with one half homogenized in Trizol for RNA and the other placed in OCT for histological analysis. Both halves were snap frozen and stored at −80° C. until used.

peroxidase = test: Intestinal IR, total tissue peroxidase; format: in vivo, mouse; details: for total peroxidase production by the intestinal tissues: administered up to 60 min post-reperfusion
Description: Ischemia/reperfusion was performed on ketamine/xylazine anesthetized mice as described in Example 1 above. After 2 hours of reperfusion, the mice were euthanized and sera, liver, spleen, and 2 cm sections of the small intestine, approximately 10 cm distal to the gastroduodenal junction, were collected for histological and other analyses. Mice treated with the various β2-GPI peptides underwent the same procedure with i.v. administration of the peptides. Most studies assumed 2 mL total blood volume in a mouse and administered peptides to a final concentration of 40 μM at 5 min prior to ischemia. Dose response studies administered 1-40 μM peptide at 5 min prior to ischemia and time course studies administered 40 μM peptide at 5 min prior to ischemia, and at 15-, 30- or 60-min post-ischemia (i.e., during reperfusion).
Total peroxidase, LTB4, PGE2, IL-6, IL-12p40, and IL-12p70 concentrations were determined using the procedures described in Example 1.

[2] = tested on: thioglycollate-elicited macrophages, nitric oxide; test: β2-GPI stimulated macrophage nitric oxide production; format: cell-based; details: mouse β2-GPI 10 μg/mL, peptide 40 μM, 18 hours
Description: C57Bl/6 mice were injected i.p. with 1 mL thioglycollate (4%) 4 days prior to peritoneal lavage. Peritoneal exudate macrophages or the B cell line, LK35.2, were seeded at 2×10^6 cells/mL in 24-well or 96-well plates. After macrophage adherence, both cell types were treated with mouse β2-GPI (10 μg/mL) with or without peptide (40 μM). Additional cells were unstimulated as a negative control or stimulated with 10 μg/mL LPS (E. coli 055B5) as a positive control. Supernatants were collected 18-20 hours after stimulation and analyzed for nitrite by Griess reagent (Hoffman & Fleming, Cell Biochem. Funct. 28:686-694 (2010)) or IL-6 by Milliplex MAP kit (Millipore) following the manufacturer's instructions using a Luminex 200 with xPONENT 3.1 and Analyst software (Millipore).

[3] = dose response, similar concentrations of each peptide
[4] = peptide administered prior to IR

Substance	anti-β2-GPI mAb binding to hypoxic MS-1 cells [1]	β2-GPI binding to hypoxic endothelial cells [1]	total peroxidase production by the intestinal tissues (peroxidase)	intestinal peroxidase production (peroxidase; [3])	intestinal peroxidase production (peroxidase; [4])	β2-GPI-induced nitric oxide production [2]	also measured
H-IHFYCKNKEKKCSYTVEAHCRDGTI-OH (cysteine pairing not given here) [peptide 296]	did not bind	capable of preventing β2-GPI from binding	–	–	–	–	–
H-IHFYSKNKEKKSSYTVEAHSRDGTI-OH [peptide 296Cys-Ser]	–	attenuated β2-GPI binding	significantly decreased	attenuated	significantly attenuated	significantly attenuated	tumor vascularization (appearance) (B16-F10 mouse melanoma; 2 mice injected with melanoma cells and peptide): neither tumor appear vascularized; tumor volume, normal saline displaced (B16-F10 mouse melanoma; 2 mice injected with melanoma cells and peptide, day 8): 0 to 0.1 mL; animals in which the tumor was either not present or had significantly diminished from the day of injection (B16-F10 mouse melanoma; early treatment (days 1-4, 6, 8)): 3 of 7; angiogenesis in the B16F10 melanoma model (B16-F10 mouse melanoma; mouse, in vivo): attenuates angiogenesis; tumor growth and volume (B16-F10 mouse melanoma; repeat study, compared to untreated mice): significantly decreased; tumor growth (B16-F10 mouse melanoma; treatment on days 1-4, 6, and 8): attenuated tumor growth; also recorded: prevented growth; tumor growth (B16-F10 mouse melanoma; treatment on days 3, 5, 7, and 9): attenuated tumor growth
H-IPSCFKEHSSLAFWKTDASELTPC-NH2 (cysteine pairing not given here) [peptide 322, 18]	did not inhibit antibody binding	–	–	–	–	–	–
H-KKCSYTVEAHCRDGTIEIPSCFKEHS-OH (cysteine pairing not given here) [peptide 305, 10]	did not bind	capable of preventing β2-GPI from binding	significantly decreased	attenuated	significantly attenuated	significantly attenuated	–
H-KNISFACNPGFFLNG-NH2 [peptide 100, 16, reference compound]	did not inhibit antibody binding	–	–	–	–	–	–
